# Measured values published in patent publication US20250108070A1, “METHOD FOR REPROGRAMMING CD8+ T CELLS TO ENHANCE THEIR THERAPEUTIC POTENTIAL AND APPLICATIONS THEREOF” (INSTITUT PASTEUR, priority 2022, published 2025).
# Assays:
# [1] = tested on: CD8+ T cells from people without HIV; test: In vitro reprogramming of bulk CD8+ T cells, phenotype without further stimulation; assay type: cell-based, human
# Experimental: FIG. 1. Induction of stem-like CD8^+ T cells with high survival capacity and polyfunctionality by in vitro reprogramming. A. CD8^+ T cells from people without HIV were incubated with medium, vehicle control, or a GSK3 inhibitor, for 12 hs and the phenotype was evaluated by flow cytometry. A representative donor from a total of 4 is shown. B. Frequencies of CD8^+ T cell subpopulations after each treatment. C. Fold change of CD8^+ T cell subpopulations after treatment with vehicle control or a GSK3 inhibitor, relative to medium alone condition (n=4). D. Expression of TCF-1 in CD8^+ T cell subpopulations (n=4). E. The expression of the indicated markers in cells pre-treated with vehicle control or a GSK3 inhibitor was evaluated by flow cytometry. The fold change in the expression induced by 48 hs anti-CD3/CD28 stimulation, relative to unstimulated cells, is shown (n=5). F. Left: Flow cytometry analysis of dead cells (Aqua Live/Dead^+) among total and T-bet+CD8^+ T cells. Right: Fold change in dead CD8^+ T cells induced by anti-CD3/CD28 stimulation, relative to the unstimulated condition (n=5). G. Frequencies of granzyme B^+, TL-2^+, IFN-γ^+, and TNF-α^+CD8^+ T cells after anti-CD3/CD28 stimulation. H. Expression of 1 to 4 functions in CD8^+ T cells after anti-CD3/CD28 stimulation (n=5). I. After reprogramming with the GSK3 inhibitor, CD8^+ T cells were stimulated for 48 hs with anti-CD3/CD28, followed by wash and resting for 5 days. Then, cells were restimulated for another 48 hs with anti-CD3/CD28. Left: Flow cytometry analysis of proliferating (CFSE dilution) CD8^+ T cells. Right: Frequencies of CD8^+ T cells with 0, 1-3 or ≥4 cell divisions (n=9). J. Frequency of the total HCMV pp65-specific CD8^+ T cell response (IFN-γ^+ or CD107a^+ or TNF-α^+), after vehicle control or GSK3 inhibitor treatment, followed by HCMV pp65 peptides stimulation for 6 hs (n=6). K. Frequencies of CD8^+ T cell subpopulations among HCMV pp65-specific CD8^+ T cells (n=6). L. Expression of IFN-γ, CD107a, and TNF-α in HCMV pp65-specific CD8^+ T cells (n=6). M. Frequency of the total HCMV pp65-specific CD8^+ T cell response after HCMV pp65 peptides stimulation for 6 days (n=6). *P<0.05; **P≤0.01. NS: Not statistically significant. TSCM: Stem cell memory; TCM: Central memory; TTM: Transitional memory; TEM: Effector memory; TTE: Terminal effector.
# FIG. 2. A. Flow cytometry gating strategy used to identify CD8^+ T cell subpopulations: Naïve, Stem cell memory (TSCM), Central memory (TCM), Transitional memory (TTM), Effector memory (TEM), and Terminal effector (TTE). B. Expression of CCR7, CD27 and TCF-1 in total CD8^+ T cells after treatment with vehicle control, or the GSK3 inhibitors BIO or TWS119, for 12 hs. The median fluorescence intensity of each marker is depicted. C. Fold change in TSCM, TCM and TEM cells induced by BIO or TWS119, relative to vehicle control (n=3 people without HIV). D. Fold change in T-bet^+ cells among TSCM and TCM induced by anti-CD3/CD28 stimulation, relative to vehicle control, in cells previously treated with vehicle control, BIO or TWS119 (n=3). E. Fold change in T-bet^+ cells among naïve/TSCM induced by anti-CD3/CD28 stimulation (0.2 and 1 μg/mL), relative to unstimulated cells, previous treatment with vehicle control or the GSK3 inhibitor (n=3). F. Fold change in T-bet^+ cells among each CD8^+ T cell subpopulation induced by anti-CD3/CD28+ICAM-1 stimulation, relative to unstimulated cells (n=5). G. Frequency of IL-2^+TNF-α^+ cells among each CD8^+ T cell subpopulation after anti-CD3/CD28+ICAM-1 stimulation (n=5). H. Correlation between the frequency of PD-1^+LAG-3^+TIM3^+TIGIT^+CD8^+ T cells and the proportion of CD8^+ T cells with ≥4 cell divisions after restimulation (n=6). I. After reprogramming with the GSK3 inhibitor, CD8^+ T cells were left unstimulated, stimulated once for 48 hs with anti-CD3/CD28, or stimulated twice with anti-CD3/CD28. The expression of T-bet in TCM and TTM cells is shown (n=5). *P<0.05. […]
# GSK3 = conditions: cited from earlier work
# [2] = BIO and TWS119 in parallel, 3 μM, 12 hs, FIG. 2C
smiles,measurement,setting,value
"O=C1Nc2cc(Br)ccc2/C1=C1/Nc2ccccc2/C1=N\O [BIO, 6-bromoindirubin-3′-oxime]",expression of TCF-1,"[1]; 3 μM, 12 hs, FIG. 1D",enhanced expression
same,CD8+ T cells with stem cell memory (TSCM) and central memory (TCM) phenotype,"[1]; 3 μM, 12 hs, FIGS. 1A-C",enrichment
same,effector memory (TEM) and terminal effector (TTE) cells,"[1]; 3 μM, 12 hs, FIGS. 1A-C",decrease
same,surface expression of CCR7 and CD27,"[1]; 3 μM, 12 hs, absence of further stimulation, FIG. 1A",upregulation
same,"CCR7, CD27, and TCF-1","[1]; BIO and TWS119 in parallel, 3 μM, 12 hs, FIG. 2B",induced
same,TEM cells,[1]; [2],decrease
same,TSCM and TCM cells,[1]; [2],increase
same,effect compared between the two GSK3 inhibitors,[1]; FIGS. 2B and C,greater effect than TWS119
same,beta-catenin phosphorylation,"GSK3; Meijer L et al., 2003",reduces
same,phosphorylation on Tyr276/216 GSK3a/p activation site,"GSK3; Meijer L et al., 2003",inhibits
same,Wnt/β-catenin/TCF-1 pathway,GSK3; reference 42,induce the activation
